Data reported in patent publication US4746736A, “Carbapenem antibiotics” (priority 1986, dated 1988).
Converted amounts (≈) assume the structure as drawn. Read-outs that look alike come from different tables or passages of the source.

How the values were obtained:
Format in all cases: cell-based
E. coli A20341-1 = assay: In vitro MIC by tube dilution, E. coli A20341-1; conditions: Escherichia coli, A203411, read-out: MIC
P. mirabilis A-9900 = assay: In vitro MIC by tube dilution, P. mirabilis A-9900; conditions: Proteus mirabilis, A9900, P. mirabilis A-9900; read-out: MIC
P. rettgeri A22424 = assay: In vitro MIC by tube dilution, P. rettgeri A22424; conditions: Providencia rettgeri, A22424, P. rettgeri A22424; read-out: MIC
E. cloacae A-9659 = assay: In vitro MIC by tube dilution, E. cloacae A-9659; conditions: Enterobacter cloacae, A9659, E. cloacae A-9659; read-out: MIC
[1] = system: S. aureus A-9606 (Pen-res.); assay: In vitro MIC by tube dilution, S. aureus A-9606 (Pen-res.); conditions: Staphylococcus aureus, S. aureus A-9606 (Pen-res); read-out: MIC
S. aureus A-9537 = assay: In vitro MIC by tube dilution, S. aureus A-9537; conditions: Staphylococcus aureus, read-out: MIC
K. pneumoniae A20468 = assay: In vitro MIC by tube dilution, K. pneumoniae A20468; conditions: Klebsiella pneumoniae, read-out: MIC
E. cloacae A-9656 = assay: In vitro MIC by tube dilution, E. cloacae A-9656; conditions: Enterobacter cloacae, A9656, E. cloacae A-9656; read-out: MIC
E. coli A15119 = assay: In vitro MIC by tube dilution, E. coli A15119; conditions: Escherichia coli, read-out: MIC
P. aeruginosa A-9843A = assay: In vitro MIC by tube dilution, P. aeruginosa A-9843A; conditions: Pseudomonas aeruginosa, A9843A, P. aeruginosa A-9843a; read-out: MIC
P. morganii A15153 = assay: In vitro MIC by tube dilution, P. morganii (M. morganii) A15153; conditions: Morganella morganii, read-out: MIC
S. pneumoniae A-9585 = assay: In vitro MIC by tube dilution, S. pneumoniae A-9585; conditions: Streptococcus pneumoniae, A9585, S. pneumoniae A-9585; read-out: MIC
K. pneumoniae A-9664 = assay: In vitro MIC by tube dilution, K. pneumoniae A-9664; conditions: Klebsiella pneumoniae, A9664, read-out: MIC
P. aeruginosa A21213 = assay: In vitro MIC by tube dilution, P. aeruginosa A21213; conditions: Pseudomonas aeruginosa, A21213, P. aeruginosa A21213; read-out: MIC
S. marcescens A20019 = assay: In vitro MIC by tube dilution, S. marcescens A20019; conditions: Serratia marcescens, read-out: MIC
S. pyogenes A9604 = assay: In vitro MIC by tube dilution, S. pyogenes A9604; conditions: Streptococcus pyogenes, A9604, S. pyogenes A-9604; read-out: MIC
S. faecalis A20688 = assay: In vitro MIC by tube dilution, S. faecalis A20688; conditions: Enterococcus faecalis, A20688, S. faecalis A20688; read-out: MIC
[2] = A9537, S. aureus A-9537, no serum
[3] = A9537, S. aureus A-9537 +50% serum

Row | Compound | MIC (E. coli A20341-1) [µg/mL] | MIC (P. mirabilis A-9900) [µg/mL] | MIC (P. rettgeri A22424) [µg/mL] | MIC (E. cloacae A-9659) [µg/mL] | MIC [1] [µg/mL] | MIC (S. aureus A-9537; [2]) [µg/mL] | MIC (K. pneumoniae A20468; A20468, K. pneumoniae A20468) [µg/mL] | MIC (E. cloacae A-9656) [µg/mL] | MIC (E. coli A15119; A15119, E. coli A15119) [µg/mL] | MIC (P. aeruginosa A-9843A) [µg/mL] | MIC (P. morganii A15153; A15153, M. morganii A15153) [µg/mL] | MIC (S. pneumoniae A-9585) [µg/mL] | MIC (K. pneumoniae A-9664) [µg/mL] | MIC (S. marcescens A20019) [µg/mL] | MIC (S. aureus A-9537; [3]) [µg/mL] | MIC (S. pyogenes A9604) [µg/mL] | MIC (E. coli A15119; E. coli A15119) [µg/mL] | other results
1 | Cc1sc(CSC2=C(C(=O)[O-])N3C(=O)[C@H]([C@@H](C)O)[C@H]3C2)c(C)[n+]1C [Example 10, 3-(2,3,4,-Trimethylthiazole-5-yl-methanethio)-6α[1-(R)-hydroxyethyl]-7-oxo-1-azabicyclo(3.2.0)hept-2-ene-2-carboxylate] | 0.008 (≈ 0.0217 µM) | 0.13 (≈ 0.353 µM) | 0.13 (≈ 0.353 µM) | 0.13 (≈ 0.353 µM) | 0.008 (≈ 0.0217 µM) | 0.008 (≈ 0.0217 µM) | 0.13 (≈ 0.353 µM) | 0.13 (≈ 0.353 µM) | 0.016 (≈ 0.0434 µM) | 32 (≈ 86.8 µM) | – | – | – | – | – | – | – | –
2 | C[C@@H](O)[C@H]1C(=O)N2C(C(=O)[O-])=C(SCc3cccc[n+]3C)C[C@H]12 [Example 4, 3-(N-Methylpyridine-2-yl-methanethio)-6α-[1-(R)-hydroxyethyl]-7-oxo-1-azabicyclo(3.2.0)hept-2-ene-2-carboxylate] | 0.016 (≈ 0.0478 µM) | – | – | – | 0.016 (≈ 0.0478 µM) | 0.008 (≈ 0.0239 µM) | – | – | 0.016 (≈ 0.0478 µM) | 2 (≈ 5.98 µM) | 0.016 (≈ 0.0478 µM) | 0.002 (≈ 0.00598 µM) | – | – | – | – | – | –
3 | C[C@@H](O)[C@H]1C(=O)N2C(C(=O)[O-])=C(SCc3scc[n+]3C)C[C@H]12 [Example 11, 3-[2-(N-Methylthiazolium)methylthio]-6α-[1-(R)-hydroxyethyl]-7-oxo-1-azabicyclo(3.2.0)hept-2-ene-2-carboxylate] | 0.03 (≈ 0.0881 µM) | 0.03 (≈ 0.0881 µM) | 0.13 (≈ 0.382 µM) | 0.06 (≈ 0.176 µM) | 0.016 (≈ 0.047 µM) | 0.004 (≈ 0.0117 µM) | 0.13 (≈ 0.382 µM) | 0.13 (≈ 0.382 µM) | 0.016 (≈ 0.047 µM) | – | 0.06 (≈ 0.176 µM) | 0.002 (≈ 0.00587 µM) | 0.03 (≈ 0.0881 µM) | 0.06 (≈ 0.176 µM) | 0.016 (≈ 0.047 µM) | 0.002 (≈ 0.00587 µM) | – | MIC (P. aeruginosa A21213): 0.13 µg/mL (≈ 0.382 µM)
4 | C[C@@H](O)[C@H]1C(=O)N2C(C(=O)[O-])=C(SCc3cs[n+](C)n3)C[C@H]12 [Example 16, (5R,6S) 6-(1R-hydroxyethyl)-3-(2-methyl-1,2,3-thiadiazolium-4-ylmethylthio)-7-oxo-1-azabicyclo[3.2.0]hept-2-ene-2-carboxylate] | 0.016 (≈ 0.0469 µM) | 0.06 (≈ 0.176 µM) | – | 0.06 (≈ 0.176 µM) | 0.016 (≈ 0.0469 µM) | 0.008 (≈ 0.0234 µM) | 0.06 (≈ 0.176 µM) | 0.06 (≈ 0.176 µM) | 0.016 (≈ 0.0469 µM) | 0.25 (≈ 0.732 µM) | – | 0.002 (≈ 0.00586 µM) | 0.06 (≈ 0.176 µM) | 0.06 (≈ 0.176 µM) | 0.03 (≈ 0.0879 µM) | 0.002 (≈ 0.00586 µM) | – | –
5 | Cc1c(CSC2=C(C(=O)[O-])N3C(=O)[C@H]([C@@H](C)O)[C@H]3C2)ccc[n+]1C [Example 14, 3-(2-Methyl-N-methylpyridine-3-yl-methanethio)-6α-[1-(R)-hydroxyethyl]-7-oxo-1-azabicyclo(3.2.0)hept-2-ene-2-carboxylate] | 0.008 (≈ 0.023 µM) | 0.016 (≈ 0.0459 µM) | 0.06 (≈ 0.172 µM) | 0.03 (≈ 0.0861 µM) | 0.016 (≈ 0.0459 µM) | 0.008 (≈ 0.023 µM) | – | 0.03 (≈ 0.0861 µM) | – | 8 (≈ 23 µM) | – | – | 0.03 (≈ 0.0861 µM) | 0.016 (≈ 0.0459 µM) | 0.03 (≈ 0.0861 µM) | – | 0.008 (≈ 0.023 µM) | MIC (P. morganii A15153; M. morganii A15153): 0.03 µg/mL (≈ 0.0861 µM); MIC (S. faecalis A20688): 0.13 µg/mL (≈ 0.373 µM); MIC (K. pneumoniae A20468; K. pneumoniae A20468): 0.03 µg/mL (≈ 0.0861 µM)
6 | C[C@@H](O)[C@H]1C(=O)N2C(C(=O)[O-])=C(SCc3n[n+](C)nn3C)C[C@H]12 [Example 20, (1'R,5R,6S) 3-[(1,3-dimethyl-5-tetrazolium)-methylthio]-6-(1-hydroxyethyl)-7-oxo-1-azabicyclo[3.2.0]hept-2-ene-2-carboxylate] | – | – | 8 (≈ 23.6 µM) | 8 (≈ 23.6 µM) | > 125 | – | – | – | – | 32 (≈ 94.3 µM) | 8 (≈ 23.6 µM) | 0.06 (≈ 0.177 µM) | – | – | 2 (≈ 5.89 µM) | 0.13 (≈ 0.383 µM) | – | –
7 | C[C@@H](O)[C@H]1C(=O)N2C(C(=O)[O-])=C(SCc3cn(C)n[n+]3CC(=O)O)C[C@H]12 [Example 17, Potassium 3-[5-(1-carboxylatomethyl-3-methyl-1,2,3-triazolium)-methanethio]-6α-[1-(R)-hydroxyethyl]-7-oxo-1-azabicyclo[3.2.0]hept-2-ene-2-carboxylate] | – | 0.13 | – | – | – | – | – | – | – | > 63 | – | 0.016 | 0.13 | 0.13 | – | 0.016 | – | –
8 | C[C@@H](O)[C@H]1C(=O)N2C(C(=O)[O-])=C(SCc3ccc[n+](C)c3)C[C@H]12 [Example 3, 3-(N-Methylpyridine-3-yl-methanethio)-6α-[1-(R)-hydroxyethyl]-7-oxo-1-azabicyclo(3.2.0)hept-2-ene-2-carboxylate] | 0.016 (≈ 0.0478 µM) | 0.13 (≈ 0.389 µM) | – | 0.13 (≈ 0.389 µM) | 0.016 (≈ 0.0478 µM) | 0.016 (≈ 0.0478 µM) | 0.06 (≈ 0.179 µM) | 0.13 (≈ 0.389 µM) | – | 2 (≈ 5.98 µM) | 0.13 (≈ 0.389 µM) | 0.002 (≈ 0.00598 µM) | 0.06 (≈ 0.179 µM) | 0.016 (≈ 0.0478 µM) | 0.016 (≈ 0.0478 µM) | 0.002 (≈ 0.00598 µM) | 0.03 (≈ 0.0897 µM) | –
9 | C[C@@H](O)[C@H]1C(=O)N2C(C(=O)[O-])=C(SCc3n(Cc4ccccc4)cc[n+]3C)C[C@H]12 [Example 13, 3-(N-Methyl-N'-benzylimidazole-2-yl-methanethio)-6α-[1-(R)-hydroxyethyl]-7-oxo-1-azabicyclo(3.2.0)hept-2-ene-2-carboxylate] | 0.008 (≈ 0.0193 µM) | 0.016 (≈ 0.0387 µM) | – | 0.06 (≈ 0.145 µM) | 0.008 (≈ 0.0193 µM) | 0.008 (≈ 0.0193 µM) | 0.13 (≈ 0.314 µM) | 0.03 (≈ 0.0726 µM) | – | 32 (≈ 77.4 µM) | 0.016 (≈ 0.0387 µM) | – | 0.03 (≈ 0.0726 µM) | 0.016 (≈ 0.0387 µM) | 0.016 (≈ 0.0387 µM) | – | 0.004 (≈ 0.00967 µM) | MIC (S. faecalis A20688): 0.13 µg/mL (≈ 0.314 µM)
10 | Cc1scc(CSC2=C(C(=O)[O-])N3C(=O)[C@H]([C@@H](C)O)[C@H]3C2)[n+]1C [Example 8, 3-(2-Methyl-N-methylthiazole-4-yl-methanethio)-6α-[1-(R)-hydroxyethyl]-7-oxo-1-azabicyclo(3.2.0)hept-ene-2-carboxylate] | 0.03 (≈ 0.0846 µM) | 0.13 (≈ 0.367 µM) | 0.13 (≈ 0.367 µM) | 0.13 (≈ 0.367 µM) | 0.03 (≈ 0.0846 µM) | 0.008 (≈ 0.0226 µM) | 0.13 (≈ 0.367 µM) | 0.06 (≈ 0.169 µM) | 0.016 (≈ 0.0451 µM) | 1 (≈ 2.82 µM) | – | 0.002 (≈ 0.00564 µM) | 0.03 (≈ 0.0846 µM) | 0.06 (≈ 0.169 µM) | 0.03 (≈ 0.0846 µM) | 0.002 (≈ 0.00564 µM) | – | –
